Measurements reported in patent publication US20260209777A1, “TARGETING GLYCOSYLPHOSPHATIDYLINOSITOL (GPI) PATHWAY PROTEINS TO TREAT OVARIAN CANCER” (UNIVERSITY OF MASSACHUSETTS, priority 2023, published 2026).

Experiments:
OVCAR8 cells = assay: In vitro phagocytosis assay of OVCAR8 cells by PBMC-derived M2 macrophages; type: cell-based, human; details: bestatin 20 μM; for macrophage-mediated phagocytosis: OVCAR8, tosedostat 20 μM, ARM1 2 μM, vs DMSO; for phagocytosis of OVCAR8 cells: tosedostat 10 μM vs DMSO, anti-CD24 antibody (clone SN3) vs IgG (FIG. 9C)
Excerpt: Macrophage Generation and Stimulation: Primary human donor-derived macrophages were generated as described previously (Martinez, Curr Protocol Immunol 2012, Chapter 14:14.28.1-14.28.23). In brief, Leukopaks from anonymous donors were obtained from the Rhode Island Blood (Providence, RI) and peripheral blood […] (PBMCs) were isolated by density gradients centrifugation using Ficoll Paque Plus (Sigma-Aldrich, Cat #17-1440-02) followed by RBC lysis using RBC lysis buffer (eBioscience, Cat #00-4333-57). For monocyte isolation, PBMCs were incubated in Monocyte Attachment Medium (Sigma-Aldrich, Cat #C-28051) for 1 hour at 37° C. and 5% CO2 and then washed three times in Iscove's Modified Dulbecco's Medium (IMDM) (Gibco, Cat #12440053) to remove non-adherent cells. The remaining monocytes were detached and seeded in 96-well plates and cultured at 37° C. and 5% CO2 in IMDM supplemented with 10% FBS (Atlanta Biologicals, Cat #S11550) and 20 ng/ml recombinant human M-CSF (Peprotech, Cat #AF-300-25). After 4 days monocytes were then treated with 20 ng/ml recombinant human IL-4 (Peprotech, Cat #200-04) and 10 ng/mL recombinant human IL-10 (PeproTech, Cat #200-10) for another 3-4 days to obtain M2 polarized macrophages. Macrophage differentiation was confirmed morphologically using microscopy. M2-macrophage polarization was confirmed by immunophenotyping of the M2 marker CD206 using PE-conjugated anti-human anti-CD206 antibody (BioLegend, Cat #321106, clone 15-2, 1:100 dilution). In vitro Phagocytosis Assays: To facilitate the quantification of phagocytic events, we adapted a microscopy-based fluorescence phagocytosis […] al., J Immunol Methods 2009, 342(1-2):71-7; Lindner et al., Biotechniques 2020, 68(5):245-250) for use with a Celigo imaging cytometer. […] Cells were incubated with pHrodo Red, SE (Invitrogen, Cat #P36600) on ice for 30 min and then co-cultured with PBMC-derived M2 macrophages (prepared as described above) at a ratio of 1:2 (OVCAR8/B cells: macrophages) for 2 hours in a humidified 5% CO2 incubator at 37° C. Phagocytic events were quantified by counting the number of red fluorescent (pHrodo+) cells per well using a Celigo Imaging Cytometer (Nexcelom). EmGFP was used for the visualization of cancer cells in imaging Phagocytic events were also quantified using a previously-described flow cytometry-based assay (Barkal et al., Nature 2019, 572(7769):392-396; […] et al., Biomedicines 2022, 10(5):1175). In brief, M2 macrophages co-cultured with OVCAR8/EmGFP-luc cells were detached using TrypLE Express (GibcoTM, cat #12604013), stained with APC anti-human CD11b clone ICRF44 (BioLegend, Cat #982604) and analyzed by flow cytometry (BioRad ZE5). Double-positive EmGFP+CD11b+ cells were considered phagocytic events.

CD24 on normal B cells = assay: CD24 flow cytometry analysis in primary B cells; type: cell-based, human; details: 20 μM bestatin or 10 μM tosedostat vs DMSO (FIG. 9A)
Method: Flow Cytometry Analysis: For cell surface protein staining, 1×10^5-1×10^6 cells were first incubated with Fc receptor blocking solution, Human TruStain FcX™ (BioLegend, Cat #422301) for 10 minutes at room temperature. Cells were washed once in FACS buffer (1×PBS, 1.0% bovine serum albumin (BSA) (Sigma) and 0.2% sodium azide (Sigma), and then incubated with antibodies (given below) for 30 minutes at 4° C. in the dark. Cells were also stained with 7-AAD (Biolegend, Cat #420404) for dead cell exclusion, and flow cytometry analysis was performed using a Bio-Rad ZE5 Cell Analyzer. Following antibodies used in this study (all antibodies were used at 1:50 dilution unless otherwise noted): APC anti-human CD24 (BioLegend, Cat #311118, clone ML5), PE anti-human CD24 (eBioscience, Cat #12-0247-42, clone SN3), APC anti-human CD47 (BioLegend, Cat #323124, clone CC2C6), APC anti-human § 2-microglobulin (BioLegend, Cat #395711, clone A17082A), PE anti-human HLA-A2 (MHC-class I) (BioLegend, Cat #343305, clone BB7.2), APC anti-human CD11b (BioLegend, Cat #982604, clone ICRF44), APC anti-mouse F4/80 antibody (BioLegend, Cat #123116, clone BM8), APC-streptavidin (Thermo Fisher Scientific, Cat #SA1005, 1:100 dilution), PE anti-Calreticulin (Invitrogen, Catalog #MA5-15382, 1:200 dilution). […]

For CC(C)C[C@H](NC(=O)[C@@H](O)[C@H](N)Cc1ccccc1)C(=O)O [bestatin], the macrophage-mediated phagocytosis (OVCAR8 cells) was “substantially increased”, the “phagocytosis of OVCAR8 cells” value (OVCAR8 cells) was “susceptible” and the “CD24 levels on B cells (MFI)” value (CD24 on normal B cells) was “not diminished”.
CC(C)C[C@@H](C(=O)N[C@H](C(=O)OC1CCCC1)c1ccccc1)[C@H](O)C(=O)NO [tosedostat] was tested, and the macrophage-mediated phagocytosis (OVCAR8 cells) was “increased”, the “phagocytosis of OVCAR8 cells” value (OVCAR8 cells) was “susceptible” and the “CD24 levels on B cells (MFI)” value (CD24 on normal B cells) was “not diminished”.
